Six compounds from ChEMBL document CHEMBL3596111, “Synthesis and evaluation of the anti-nociceptive and anti-inflammatory activity of 4-aminoquinoline derivatives” (Bioorg Med Chem, 2015) can be followed below.

The test system of series [1] is Rattus norvegicus. The series is described as follows: Anti-inflammatory activity in Wistar rat model complete Freund's adjuvant-induced arthritis assessed as reduction in paw edema at 5 umol/kg, ip dosed from day 14 to day 21 after immunization and measured on day 16. Type of series: functional, organism-based.
Series [2] relates to Mus musculus. Kind of series: Anti-nociceptive activity in Swiss mouse assessed as reduction in paw licking response during inflammatory phase at 10 umol/kg, ip dosed 40 mins before formalin injection. It counts as functional.
The test system of series [3] is Mus musculus. Kind of series: Anti-inflammatory activity in Swiss mouse assessed as inhibition of zymosan-induced peritonitis by measuring reduction in leukocyte migration at 10 umol/kg, ip administered 30 min before the zymosan injection. Type of series: functional.
Series [4] has as its system Mus musculus. Kind of series: Anti-inflammatory activity in Swiss mouse assessed as inhibition of zymosan-induced peritonitis by measuring reduction in leukocyte migration at 100 umol/kg, ip administered 30 min before the zymosan injection. Type of series: functional.
The subject of series [5] is Mus musculus. The series is described as follows: Anti-nociceptive activity in ip dosed Swiss mouse assessed as inhibition of acetic acid-induced writhing dosed 40 mins before acetic acid injection and measured over 25 mins. Type of series: functional. As to conditions: read-out: ID50 (the source's name). In general terms: An intraperitoneal irritant provokes the stretching counted in writhing tests.

Series [6] relates to Mus musculus. Kind of series: Anti-nociceptive activity in ip dosed Swiss mouse assessed as inhibition of acetic acid-induced writhing dosed 40 mins before acetic acid injection and measured over 25 mins relative to control. Type of series: functional.
For series [7], the system named is Mus musculus. The series is described as follows: Anti-nociceptive activity in Swiss mouse assessed as reduction in time spent in licking injected paw during neurogenic phase at 100 umol/kg, ip dosed 40 mins before formalin injection. It counts as functional, organism-based.
The subject of series [8] is Mus musculus. The series is described as follows: Anti-nociceptive activity in Swiss mouse assessed as reduction in time spent in licking injected paw during inflammatory phase at 100 umol/kg, ip dosed 40 mins before formalin injection. It counts as functional, organism-based.
Series [9] relates to Mus musculus. Kind of series: Anti-nociceptive activity in Swiss mouse assessed as reduction in paw licking response during inflammatory phase at 100 umol/kg, ip dosed 40 mins before formalin injection. Type of series: functional.
For series [10], the system named is Rattus norvegicus. The series is described as follows: Anti-inflammatory activity in Wistar rat model complete Freund's adjuvant-induced arthritis assessed as reduction in paw edema at 100 umol/kg, ip dosed from day 14 to day 21 after immunization and measured on day 17. It counts as functional, organism-based.
The test system of series [11] is Rattus norvegicus. Kind of series: Anti-inflammatory activity in Wistar rat model complete Freund's adjuvant-induced arthritis assessed as reduction in paw edema at 100 umol/kg, ip dosed from day 14 to day 21 after immunization and measured on until day of sacrifice. Type of series: functional, organism-based.
The test system of series [12] is Rattus norvegicus. The series is described as follows: Hepatotoxicity in Wistar rat model complete Freund's adjuvant-induced arthritis assessed as effect on serum ALT level at 100 umol/kg, ip dosed from day 14 to day 21 after immunization. Type of series: toxicity, organism-based. Particulars: in vivo.
In series [13] the test system is Rattus norvegicus. The series is described as follows: Toxicity in Wistar rat model complete Freund's adjuvant-induced arthritis assessed as effect on spleen weight at 100 umol/kg, ip dosed from day 14 to day 21 after immunization. It counts as organism-based. Particulars: in vivo.
Series [14] relates to Rattus norvegicus. The series is described as follows: Hepatotoxicity in Wistar rat model complete Freund's adjuvant-induced arthritis assessed as effect on serum AST level at 100 umol/kg, ip dosed from day 14 to day 21 after immunization. Type of series: toxicity, organism-based. Particulars: in vivo.
Series [15] deals with Rattus norvegicus. The series is described as follows: Renal toxicity in Wistar rat model complete Freund's adjuvant-induced arthritis assessed as effect on creatinine levels at 100 umol/kg, ip dosed from day 14 to day 21 after immunization. Type of series: organism-based. Particulars: in vivo.
The subject of series [16] is Rattus norvegicus. Kind of series: Renal toxicity in Wistar rat model complete Freund's adjuvant-induced arthritis assessed as effect on urea levels at 100 umol/kg, ip dosed from day 14 to day 21 after immunization. It counts as organism-based. Particulars: in vivo.

Calls of active or inactive are those of the source. The calls are words filed in the database; no cut-off is given here.

Regarding `C[C@@H]1C[C@H]2[C@@H]3CCC4=CC(=O)C=C[C@]4(C)[C@@]3(F)[C@@H](O)C[C@]2(C)[C@@]1(O)C(=O)CO`, the outcome with Rattus norvegicus [1] was Active.
What is called inhibition in vivo is how much of the control response was suppressed. `COc1ccc2c(c1)c(CC(=O)O)c(C)n2C(=O)c1ccc(Cl)cc1` [INDOMETHACIN]: the inhibition in vivo at 10 µmol/kg with Mus musculus [2] was 50.8%; in the series on Mus musculus [3] it was 75.8%.
In general, Emax refers to the maximal effect, on the per cent scale that the assay sets. Consider `NCCNCCNc1ccnc2cc(C(F)(F)F)ccc12`, for which the results for the inhibition in vivo at 100 µmol/kg in the series with Mus musculus [4] and in the series on Mus musculus [9] were 59.1% and 89.6%, respectively. Besides, in the series with Mus musculus [5], the ED50 came to 15.3 µmol/kg. Further, the Emax with Mus musculus [6] was 96.7%. Also, the result with Mus musculus [7], with Mus musculus [8], in the series with Rattus norvegicus [10] and in the series on Rattus norvegicus [11] was Active. Besides, the Activity result in the series with Rattus norvegicus [12], with Rattus norvegicus [13], in the series on Rattus norvegicus [14], with Rattus norvegicus [15] and with Rattus norvegicus [16] was “Non-toxic” each time.
As to `NCCNCCNc1ccnc2cc(Cl)ccc12`, the ED50 with Mus musculus [5] is 39.4 µmol/kg. Also, the Emax with Mus musculus [6] was found to be 86.4%. Further, the result in the series with Mus musculus [7] and with Mus musculus [8] was Active.
Consider `Cc1c(N(C)CS(=O)(=O)O)c(=O)n(-c2ccccc2)n1C` [METAMIZOLE], for which, in the series on Mus musculus [5], the ED50 turned out to be 36.8 µmol/kg. For the same compound, the Emax in the series on Mus musculus [6] was determined as 74.8%.
In the case of `NCCNCCNc1cc(C(F)(F)F)nc2ccccc12`, in the series on Mus musculus [5], the ED50 turned out to be 26.6 µmol/kg. For the same compound, in the series with Mus musculus [6], the Emax was found to be 95.1%. For the same compound, the outcome in the series with Mus musculus [7] and in the series on Mus musculus [8] was Active.
